A short description of test [1]: Cytotoxicity against human BC cells by colorimetric method. It is filed as functional, cell-based.
Another test deals with NCI-H187. The experiment in a line: Cytotoxicity against human NCI-H187 cells by colorimetric method. The format is functional, cell-based.
For a further test, the system named is KB. The experiment in a line: Cytotoxicity against human KB cells by colorimetric method. It is filed as functional, cell-based.
The test system of a further test is Vero. The test can be described thus: Cytotoxicity against african green monkey Vero cells by colorimetric method. It is filed as cell-based. The note with it: Chlorocebus sabaeus.

In general, IC50 refers to the concentration that inhibits the measured activity by half.

Molecules are shown by their SMILES. In brackets after ≈: the same amount, converted by molar mass. Activity calls are given as the source filed them. The calls are words filed in the database; no cut-off is given here.

For the molecule `CC1(C)CC[C@]2(C(=O)O)CC[C@]3(C)C(=CC[C@@H]4[C@@]5(C)CC[C@H](O)[C@@](C)(CO)[C@@H]5CC[C@]43C)[C@@H]2C1` [HEDERAGENIN], the half-maximal inhibitory concentration (IC50) (in test [1]; in the test with NCI-H187; in the test with KB) was above 5 µg/mL each time.

On to `CC(=O)OC[C@@]1(C)[C@@H]2CC[C@]3(C)[C@H](CC=C4[C@@H]5CC(C)(C)CC[C@]5(C(=O)O)CC[C@]43C)[C@@]2(C)CC[C@@H]1O[C@@H]1OC[C@H](OC(C)=O)[C@H](OC(C)=O)[C@H]1OC(C)=O`, for which the IC50 in test [1] was determined as 3.6 µg/mL (≈ 4.66 µM); with NCI-H187, 2.2 µg/mL (≈ 2.85 µM); in the test on KB, 3.7 µg/mL (≈ 4.79 µM).

Consider `O=C1C=C2C=C[C@@H](O)C[C@H]2O1` [MENISDAURILIDE], for which the IC50 (in test [1]; in the test with NCI-H187; in the test with KB) was above 5 µg/mL in each case.

With `CC(=O)O[C@H]1[C@H](O[C@H]2CC[C@@]3(C)[C@@H](CC[C@]4(C)[C@@H]3CC=C3[C@@H]5CC(C)(C)CC[C@]5(C(=O)O)CC[C@]34C)[C@]2(C)CO)OC[C@H](O)[C@@H]1O`, the outcome with NCI-H187 was inactive.

Take `OC[C@H](Cc1ccc2c(c1)OCO2)[C@H](CO)Cc1ccc2c(c1)OCO2` [DIHYDROCUBEBIN]: the IC50 (in test [1]; in the test with NCI-H187; in the test with KB) was above 5 µg/mL throughout.

With `CC(=O)O[C@@H]1[C@@H](OC(C)=O)[C@H](O[C@H]2CC[C@]3(C)[C@H]4CC=C5[C@@H]6CC(C)(C)CC[C@]6(C(=O)O)CC[C@@]5(C)[C@]4(C)CC[C@H]3C2(C)C)OC[C@@H]1OC(C)=O`, the IC50 in test [1] came out at 3.3 µg/mL (≈ 4.62 µM); in the test on Vero it was 3.2 µg/mL (≈ 4.48 µM). Further, the result in the test on NCI-H187 and in the test with KB was inactive.

On to `CC(=O)O[C@@H]1[C@@H](O)[C@H](O[C@H]2CC[C@@]3(C)[C@@H](CC[C@]4(C)[C@@H]3CC=C3[C@@H]5CC(C)(C)CC[C@]5(C(=O)O)CC[C@]34C)[C@]2(C)CO)OC[C@@H]1O`, for which the result with NCI-H187 and in the test on KB was inactive.

Regarding `CC1(C)CC[C@]2(C(=O)O)CC[C@]3(C)C(=CC[C@@H]4[C@@]5(C)CC[C@H](O[C@@H]6OC[C@H](O)[C@H](O)[C@H]6O)C(C)(C)[C@@H]5CC[C@]43C)[C@@H]2C1`, the IC50 in test [1] was 1.7 µg/mL (≈ 2.89 µM); in the test with NCI-H187 it was 3.2 µg/mL (≈ 5.43 µM); in the test with Vero, 2.8 µg/mL (≈ 4.76 µM). The outcome in the test on KB was inactive.

For the molecule `CC(=O)O[C@H]1CO[C@@H](O[C@H]2CC[C@@]3(C)[C@@H](CC[C@]4(C)[C@@H]3CC=C3[C@@H]5CC(C)(C)CC[C@]5(C(=O)O)CC[C@]34C)[C@]2(C)CO)[C@H](O)[C@H]1O`, the IC50 in test [1] turned out to be 3.6 µg/mL (≈ 5.57 µM); with Vero, 10.7 µg/mL (≈ 16.5 µM). For the same molecule, the outcome in the test with NCI-H187 and with KB was inactive.

As to `Cc1c2ccncc2c(C)c2c1[nH]c1ccccc12` [ELLIPTECINE], the IC50 in test [1] amounted to 0.36 µg/mL (≈ 1.46 µM); with NCI-H187 it was 0.32 µg/mL (≈ 1.3 µM); with KB, 0.26 µg/mL (≈ 1.06 µM).

For `CC1(C)CC[C@]2(C(=O)O)CC[C@]3(C)C(=CC[C@@H]4[C@@]5(C)CC[C@H](O[C@@H]6OC[C@H](O)[C@H](O)[C@H]6O)[C@@](C)(CO)[C@@H]5CC[C@]43C)[C@@H]2C1`, the outcome with NCI-H187 and with KB was inactive.

`COc1cc(C[C@@H](CO)[C@H](CO)Cc2ccc(O)c(OC)c2)ccc1O` [(+)-SECOISOLARICIRESINOL]: the IC50 (in test [1]; in the test with NCI-H187; in the test on KB) was above 5 µg/mL each time.

For the origin of these results see ChEMBL document CHEMBL1158802, “Bioactive constituents of the leaves of Phyllanthus polyphyllus var. siamensis” (J Nat Prod, 2005).
